Measurements published in PubChem BioAssay AID2060897 (Molecular Pharmacology Branch, DTP, NCI, 2025).
pIC50: −log10 of the molar value.

System: 966289-007-R4-J1-PDC complex spheroid viability
Assay: Anticancer human tumor 966289-007-R4-J1-PDC patient-derived pancreatic adenocarcinoma cell line growth inhibition [RAS]
Conditions: for pIC50: curve of first compound; for viability, T/C: stronger effect = lower value
Method in brief: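 Agents were tested in combination matrices in half-log decrements from a top concentration at or near clinical Cmax (10 microM if undetermined). Targets were multi-cell spheroids of tumour lines plus HUVEC and MSC stromal cells.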

[1] = second compound 0.000949 µM, first compound 0.00316 µM
[2] = second compound 0.000949 µM, first compound 0.01 µM
[3] = second compound 0.000949 µM, first compound 0.0316 µM
[4] = second compound 0.000949 µM, first compound 0.1 µM
[5] = second compound 0.000949 µM, first compound 0.316 µM
[6] = second compound 0.000949 µM, first compound 1 µM
[7] = second compound 0.003 µM, first compound 0.00316 µM
[8] = second compound 0.003 µM, first compound 0.01 µM
[9] = second compound 0.003 µM, first compound 0.0316 µM
[10] = second compound 0.003 µM, first compound 0.1 µM
[11] = second compound 0.003 µM, first compound 0.316 µM
[12] = second compound 0.003 µM, first compound 1 µM
[13] = second compound 0.00949 µM, first compound 0.00316 µM
[14] = second compound 0.00949 µM, first compound 0.01 µM
[15] = second compound 0.00949 µM, first compound 0.0316 µM
[16] = second compound 0.00949 µM, first compound 0.1 µM
[17] = second compound 0.00949 µM, first compound 0.316 µM
[18] = second compound 0.00949 µM, first compound 1 µM
[19] = second compound 0.03 µM, first compound 0.00316 µM
[20] = second compound 0.03 µM, first compound 0.01 µM
[21] = second compound 0.03 µM, first compound 0.0316 µM
[22] = second compound 0.03 µM, first compound 0.1 µM
[23] = second compound 0.03 µM, first compound 0.316 µM
[24] = second compound 0.03 µM, first compound 1 µM
[25] = second compound 0.0949 µM, first compound 0.00316 µM
[26] = second compound 0.0949 µM, first compound 0.01 µM
[27] = second compound 0.0949 µM, first compound 0.0316 µM
[28] = second compound 0.0949 µM, first compound 0.1 µM
[29] = second compound 0.0949 µM, first compound 0.316 µM
[30] = second compound 0.0949 µM, first compound 1 µM
[31] = second compound 0.3 µM, first compound 0.00316 µM
[32] = second compound 0.3 µM, first compound 0.01 µM
[33] = second compound 0.3 µM, first compound 0.0316 µM
[34] = second compound 0.3 µM, first compound 0.1 µM
[35] = second compound 0.3 µM, first compound 0.316 µM
[36] = second compound 0.3 µM, first compound 1 µM
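Note: spheroids exposed to agents for one week before readout.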
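Throughout, for viability, T/C: percent viability relative to DMSO vehicle control wells as 100%.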

C=CC(=O)Nc1cc(Nc2nccc(-c3cn(C)c4ccccc34)n2)c(OC)cc1N(C)CCN(C)C + CCn1c(-c2cc(N3CCN(C)CC3)cnc2C(C)OC)c2c3cc(ccc31)-c1csc(n1)CC(NC(=O)C1CC1C)C(=O)N1CCCC(N1)C(=O)OCC(C)(C)C2
pIC50 (second compound 0.000949 µM): < 6.00 | pIC50 (second compound 0.003 µM): < 6.00 | pIC50 (second compound 0.00949 µM): < 6.00 | pIC50 (second compound 0.03 µM): < 6.00 | pIC50 (second compound 0.0949 µM): < 6.00 | pIC50 (second compound 0.3 µM): < 6.00 | viability, T/C [1]: 88% | viability, T/C [2]: 88.8% | viability, T/C [3]: 116% | viability, T/C [4]: 69.1% | viability, T/C [5]: 83.5% | viability, T/C [6]: 75.5% | viability, T/C [7]: 90.7% | viability, T/C [8]: 92.2% | viability, T/C [9]: 80.2% | viability, T/C [10]: 82.7% | viability, T/C [11]: 110% | viability, T/C [12]: 79.3% | viability, T/C [13]: 111% | viability, T/C [14]: 87.6% | viability, T/C [15]: 98.8% | viability, T/C [16]: 78.7% | viability, T/C [17]: 92.9% | viability, T/C [18]: 94.7% | viability, T/C [19]: 74.4% | viability, T/C [20]: 71.4% | viability, T/C [21]: 100% | viability, T/C [22]: 88.4% | viability, T/C [23]: 120% | viability, T/C [24]: 96.8% | viability, T/C [25]: 86% | viability, T/C [26]: 111% | viability, T/C [27]: 98.1% | viability, T/C [28]: 114% | viability, T/C [29]: 88.2% | viability, T/C [30]: 101% | viability, T/C [31]: 102% | viability, T/C [32]: 89.6% | viability, T/C [33]: 103% | viability, T/C [34]: 143% | viability, T/C [35]: 123% | viability, T/C [36]: 103%

O=C(c1ccc(F)c(F)c1Nc1ccc(I)cc1F)N1CC(O)([C@@H]2CCCCN2)C1 + CCn1c(-c2cc(N3CCN(C)CC3)cnc2C(C)OC)c2c3cc(ccc31)-c1csc(n1)CC(NC(=O)C1CC1C)C(=O)N1CCCC(N1)C(=O)OCC(C)(C)C2
pIC50 (second compound 0.000949 µM): 6.19 | pIC50 (second compound 0.003 µM): 6.22 | pIC50 (second compound 0.00949 µM): 6.64 | pIC50 (second compound 0.03 µM): 6.91 | pIC50 (second compound 0.0949 µM): 7.34 | pIC50 (second compound 0.3 µM): 7.49 | viability, T/C [1]: 101% | viability, T/C [2]: 89.9% | viability, T/C [3]: 106% | viability, T/C [4]: 77.7% | viability, T/C [5]: 74.2% | viability, T/C [6]: 36.2% | viability, T/C [7]: 92% | viability, T/C [8]: 90.8% | viability, T/C [9]: 94.7% | viability, T/C [10]: 74.5% | viability, T/C [11]: 75.5% | viability, T/C [12]: 32.2% | viability, T/C [13]: 83.8% | viability, T/C [14]: 96.2% | viability, T/C [15]: 87.8% | viability, T/C [16]: 82.5% | viability, T/C [17]: 37% | viability, T/C [18]: 22.6% | viability, T/C [19]: 87.3% | viability, T/C [20]: 79.3% | viability, T/C [21]: 76.2% | viability, T/C [22]: 54.2% | viability, T/C [23]: 29.9% | viability, T/C [24]: 15.5% | viability, T/C [25]: 97.5% | viability, T/C [26]: 93% | viability, T/C [27]: 52.5% | viability, T/C [28]: 34.6% | viability, T/C [29]: 21.1% | viability, T/C [30]: 11% | viability, T/C [31]: 93.1% | viability, T/C [32]: 76.5% | viability, T/C [33]: 52% | viability, T/C [34]: 23.7% | viability, T/C [35]: 19.7% | viability, T/C [36]: 10.4%
